Experimental data: article PMC5218480 (PLoS ONE, 2017)

Test system: MV-4-11 cells
Assay: Gene expression microarray analysis (Affymetrix PrimeView) and GSEA
Type: cell-based, human
Parameters: RFU PODN (11730768_x_at) / Fold change /veh PODN (11730768_x_at) / RFU LINC00158 (11744669_a_at) / Fold change /veh LINC00158 (11744669_a_at) / RFU DUSP10 (11751237_a_at) / Fold change /veh DUSP10 (11751237_a_at) / RFU ID3 (11757404_x_at) / Fold change /veh ID3 (11757404_x_at) / RFU PLEKHG5 (11737974_s_at) / Fold change /veh PLEKHG5 (11737974_s_at) / RFU LRRC4B (11730491_at) / Fold change /veh LRRC4B (11730491_at) / RFU GIMAP4 (11747438_a_at) / Fold change /veh GIMAP4 (11747438_a_at) / RFU KRT8 (11758183_x_at) / Fold change /veh KRT8 (11758183_x_at) / RFU CNN1 (11734310_a_at) / Fold change /veh CNN1 (11734310_a_at) / RFU VPS37D (11726825_at) / Fold change /veh VPS37D (11726825_at) / RFU C10orf10 (11716522_x_at) / Fold change /veh C10orf10 (11716522_x_at) / RFU KIR2DL2 /// KIR2DL4 /// KIR2DL5A /// KIR2DL5B /// KIR2DS1 /// KIR2DS2 /// KIR2DS3 /// KIR2DS4 /// KIR3DL3 /// KIR3DL3 /// KIR3DS1 (11738374_at) / Fold change /veh KIR2DL2 /// KIR2DL4 /// KIR2DL5A /// KIR2DL5B /// KIR2DS1 /// KIR2DS2 /// KIR2DS3 /// KIR2DS4 /// KIR3DL3 /// KIR3DL3 /// KIR3DS1 (11738374_at) / RFU C1QL1 (11718748_at) / Fold change /veh C1QL1 (11718748_at) / RFU TMPRSS4 (11747572_a_at) / Fold change /veh TMPRSS4 (11747572_a_at) / RFU HAMP (11756126_x_at) / Fold change /veh HAMP (11756126_x_at) / RFU RNFT2 (11725882_a_at) / Fold change /veh RNFT2 (11725882_a_at) / RFU NR4A2 (11747474_a_at) / Fold change /veh NR4A2 (11747474_a_at) / RFU ABCC12 (11746883_a_at) / Fold change /veh ABCC12 (11746883_a_at) / RFU TMEM136 (11760407_x_at) / Fold change /veh TMEM136 (11760407_x_at) / RFU CLDN22 /// WWC2 (11732394_at) / Fold change /veh CLDN22 /// WWC2 (11732394_at) / RFU HLA-DPB1 (11760878_x_at) / Fold change /veh HLA-DPB1 (11760878_x_at) / RFU SPINT1 (11716480_a_at) / Fold change /veh SPINT1 (11716480_a_at) / RFU GAP43 (11754022_s_at) / Fold change /veh GAP43 (11754022_s_at) / RFU A4GNT (11735810_at) / Fold change /veh A4GNT (11735810_at) / RFU PRB3 (11715151_x_at) / Fold change /veh PRB3 (11715151_x_at) / RFU TUBB4B (11761932_at) / Fold change /veh TUBB4B (11761932_at) / RFU CAPN14 (11732068_a_at) / Fold change /veh CAPN14 (11732068_a_at) / RFU TMCC2 (11721928_a_at) / Fold change /veh TMCC2 (11721928_a_at) / RFU IRGQ (11745062_a_at) / Fold change /veh IRGQ (11745062_a_at) / RFU FAM174B (11720279_a_at) / Fold change /veh FAM174B (11720279_a_at) / RFU TMPRSS4 (11748680_a_at) / Fold change /veh TMPRSS4 (11748680_a_at) / RFU FAM212B (11763350_a_at) / Fold change /veh FAM212B (11763350_a_at) / RFU PLEKHG5 (11743358_a_at) / Fold change /veh PLEKHG5 (11743358_a_at) / RFU ZSCAN30 (11745921_a_at) / Fold change /veh ZSCAN30 (11745921_a_at) / RFU CMKLR1 (11741424_a_at) / Fold change /veh CMKLR1 (11741424_a_at) / RFU LOC101060620 /// MAPK8IP1 (11723275_at) / Fold change /veh LOC101060620 /// MAPK8IP1 (11723275_at) / RFU SPTSSB (11747773_x_at) / Fold change /veh SPTSSB (11747773_x_at) / RFU PRSS12 (11739890_at) / Fold change /veh PRSS12 (11739890_at) / RFU BIN1 (11741810_x_at) / Fold change /veh BIN1 (11741810_x_at) / RFU WNT11 (11732464_a_at) / Fold change /veh WNT11 (11732464_a_at) / RFU C10orf10 (11716521_a_at) / Fold change /veh C10orf10 (11716521_a_at) / RFU C5orf56 (11738089_at) / Fold change /veh C5orf56 (11738089_at) / RFU CYB561 (11721691_x_at) / Fold change /veh CYB561 (11721691_x_at) / RFU ANKRD19P (11752326_a_at) / Fold change /veh ANKRD19P (11752326_a_at) / RFU OR2T12 /// OR2T33 /// OR2T8 (11738714_s_at) / Fold change /veh OR2T12 /// OR2T33 /// OR2T8 (11738714_s_at) / RFU VCAN (11748164_a_at) / Fold change /veh VCAN (11748164_a_at) / RFU JSRP1 (11732532_at) / Fold change /veh JSRP1 (11732532_at) / RFU KRTAP10-11 (11738290_x_at) / Fold change /veh KRTAP10-11 (11738290_x_at) / RFU MYO3A (11730013_a_at) / Fold change /veh MYO3A (11730013_a_at) / RFU EBF3 (11725865_a_at) / Fold change /veh EBF3 (11725865_a_at) / RFU CAMK2N1 (11719241_x_at) / Fold change /veh CAMK2N1 (11719241_x_at) / RFU C5orf56 (11738088_a_at) / Fold change /veh C5orf56 (11738088_a_at) / RFU OLFML3 (11715873_a_at) / Fold change /veh OLFML3 (11715873_a_at) / RFU LOC100653217 /// NTM (11731650_a_at) / Fold change /veh LOC100653217 /// NTM (11731650_a_at) / RFU MAPK11 (11762145_a_at) / Fold change /veh MAPK11 (11762145_a_at) / RFU FIZ1 (11724087_x_at) / Fold change /veh FIZ1 (11724087_x_at) / RFU OASL (11726364_x_at) / Fold change /veh OASL (11726364_x_at) / RFU SOX15 (11748057_x_at) / Fold change /veh SOX15 (11748057_x_at) / RFU CD79A (11719716_a_at) / Fold change /veh CD79A (11719716_a_at) / RFU HIST1H1D (11736915_at) / Fold change /veh HIST1H1D (11736915_at) / RFU CASKIN2 (11723855_a_at) / Fold change /veh CASKIN2 (11723855_a_at) / RFU LOC730098 (11760151_x_at) / Fold change /veh LOC730098 (11760151_x_at) / RFU OR4N2 (11742367_at) / Fold change /veh OR4N2 (11742367_at) / RFU PRRT2 (11749266_a_at) / Fold change /veh PRRT2 (11749266_a_at) / RFU SNX32 (11753110_a_at) / Fold change /veh SNX32 (11753110_a_at) / RFU CDHR5 (11726645_a_at) / Fold change /veh CDHR5 (11726645_a_at) / RFU RCAN1 (11760418_a_at) / Fold change /veh RCAN1 (11760418_a_at) / RFU FAM167A (11723789_a_at) / Fold change /veh FAM167A (11723789_a_at) / RFU FAM26E (11764081_at) / Fold change /veh FAM26E (11764081_at) / RFU ISYNA1 (11749810_s_at) / Fold change /veh ISYNA1 (11749810_s_at) / RFU ACY1 (11761880_at) / Fold change /veh ACY1 (11761880_at) / RFU 11764098_at / Fold change /veh 11764098_at / RFU SAMD14 (11745864_x_at) / Fold change /veh SAMD14 (11745864_x_at) / RFU NPB (11741838_a_at) / Fold change /veh NPB (11741838_a_at) / RFU TMPRSS6 (11731388_a_at) / Fold change /veh TMPRSS6 (11731388_a_at) / RFU KRTAP10-2 (11738614_at) / Fold change /veh KRTAP10-2 (11738614_at) / RFU ARHGAP8 /// PRR5-ARHGAP8 (11727945_x_at) / Fold change /veh ARHGAP8 /// PRR5-ARHGAP8 (11727945_x_at) / RFU KRTAP5-7 /// NADSYN1 (11734609_at) / Fold change /veh KRTAP5-7 /// NADSYN1 (11734609_at) / RFU RASL12 (11751679_a_at) / Fold change /veh RASL12 (11751679_a_at) / RFU CDKN2B (11736163_a_at) / Fold change /veh CDKN2B (11736163_a_at) / RFU PRF1 (11729649_at) / Fold change /veh PRF1 (11729649_at) / RFU, ZNF638 /// ZNF638-IT1 / Fold change vs veh, ZNF638 /// ZNF638-IT1 / RFU, PANK3 / Fold change vs veh, PANK3 / RFU, SH3YL1 / Fold change vs veh, SH3YL1 / RFU, ZEB2 / Fold change vs veh, ZEB2 / RFU, NRIP1 / Fold change vs veh, NRIP1 / RFU, PTTG1IP / Fold change vs veh, PTTG1IP / RFU, CAPN2 / Fold change vs veh, CAPN2 / RFU, MED14 / Fold change vs veh, MED14 / RFU, SNORA58 / Fold change vs veh, SNORA58 / RFU, C1orf63 / Fold change vs veh, C1orf63 / RFU, LRRFIP1 / Fold change vs veh, LRRFIP1 / RFU, NDUFAF7 / Fold change vs veh, NDUFAF7 / RFU, SLC12A2 / Fold change vs veh, SLC12A2 / RFU, IBTK / Fold change vs veh, IBTK / RFU, ESF1 / Fold change vs veh, ESF1 / Fold change vs veh, TMEM50B / RFU, TAOK1 / Fold change vs veh, TAOK1 / RFU, ACBD3 / Fold change vs veh, ACBD3 / RFU, TMA16 / Fold change vs veh, TMA16 / RFU, RWDD3 / Fold change vs veh, RWDD3 / RFU, BCAT1 / Fold change vs veh, BCAT1 / RFU, EDEM3 / Fold change vs veh, EDEM3 / RFU, TMEM33 / Fold change vs veh, TMEM33 / RFU, WDR75 / Fold change vs veh, WDR75 / RFU, AHCTF1 / Fold change vs veh, AHCTF1 / RFU, TFRC / Fold change vs veh, TFRC / RFU, ZDHHC17 / Fold change vs veh, ZDHHC17 / RFU, NOM1 / Fold change vs veh, NOM1 / RFU, ARL8B / Fold change vs veh, ARL8B / RFU, ZBTB11 / Fold change vs veh, ZBTB11 / RFU, TAMM41 / Fold change vs veh, TAMM41 / RFU, KIAA1704 /// LOC100996395 / Fold change vs veh, KIAA1704 /// LOC100996395 / RFU, ING1 / Fold change vs veh, ING1 / RFU, TRMT61B / Fold change vs veh, TRMT61B / RFU, FUBP3 / Fold change vs veh, FUBP3 / RFU, TP53 / Fold change vs veh, TP53 / RFU, TNKS2 / Fold change vs veh, TNKS2 / RFU, ZFP14 / Fold change vs veh, ZFP14 / RFU, ACTR2 / Fold change vs veh, ACTR2 / RFU, PPP3R1 / Fold change vs veh, PPP3R1 / RFU, PIK3R1 / Fold change vs veh, PIK3R1 / RFU, HNRNPA1 / Fold change vs veh, HNRNPA1 / RFU, RNF170 / Fold change vs veh, RNF170 / RFU, ZNF28 / Fold change vs veh, ZNF28 / RFU, RNGTT / Fold change vs veh, RNGTT / RFU, OGT / Fold change vs veh, OGT / RFU, BRD1 / Fold change vs veh, BRD1 / RFU, MARS / Fold change vs veh, MARS / RFU, ZNF655 / Fold change vs veh, ZNF655 / RFU, FAHD1 / Fold change vs veh, FAHD1 / RFU, BDP1 / Fold change vs veh, BDP1 / RFU, LRRCC1 / Fold change vs veh, LRRCC1 / RFU, ARID1A / Fold change vs veh, ARID1A / RFU, ZNF146 / Fold change vs veh, ZNF146 / RFU, ZNF330 / Fold change vs veh, ZNF330 / RFU, GPN3 / Fold change vs veh, GPN3 / RFU, C9orf123 / Fold change vs veh, C9orf123 / RFU, N4BP2L2 / Fold change vs veh, N4BP2L2 / RFU, ARFIP1 / Fold change vs veh, ARFIP1 / RFU, FAM179B / Fold change vs veh, FAM179B / RFU, BCL10 / Fold change vs veh, BCL10 / RFU, UHRF1BP1L / Fold change vs veh, UHRF1BP1L / RFU, BET1 / Fold change vs veh, BET1 / RFU, CNOT2 / Fold change vs veh, CNOT2 / RFU, ZNF268 / Fold change vs veh, ZNF268 / Fold change vs veh, ZNF507 / RFU, DGCR2 / Fold change vs veh, DGCR2 / RFU, WDSUB1 / Fold change vs veh, WDSUB1 / Fold change vs veh, HSP90B1 /// MIR3652 / RFU, ADSS / Fold change vs veh, ADSS / RFU, GK / Fold change vs veh, GK / RFU, ZNF148 / Fold change vs veh, ZNF148 / RFU, TAF9 / Fold change vs veh, TAF9 / RFU, SLC1A5 / Fold change vs veh, SLC1A5 / RFU, SLMO2 / Fold change vs veh, SLMO2 / RFU, ABCC4 / Fold change vs veh, ABCC4 / RFU, LOC101060439 /// RAP1B / Fold change vs veh, LOC101060439 /// RAP1B / RFU, RFX7 / Fold change vs veh, RFX7 / RFU, GTPBP10 / Fold change vs veh, GTPBP10 / RFU, CNEP1R1 / Fold change vs veh, CNEP1R1 / RFU, BIVM-ERCC5 /// ERCC5 / Fold change vs veh, BIVM-ERCC5 /// ERCC5 / RFU, ILF3 / Fold change vs veh, ILF3 / RFU 11762660_at / Fold change /veh 11762660_at / RFU VCAN (11757783_s_at) / Fold change /veh VCAN (11757783_s_at) / RFU DDX43 (11728927_at) / Fold change /veh DDX43 (11728927_at) / RFU KRT8 (11758188_x_at) / Fold change /veh KRT8 (11758188_x_at) / RFU NKD1 (11759106_at) / Fold change /veh NKD1 (11759106_at) / RFU SRD5A1 (11742802_a_at) / Fold change /veh SRD5A1 (11742802_a_at) / RFU TPSAB1 /// TPSB2 (11721975_s_at) / Fold change /veh TPSAB1 /// TPSB2 (11721975_s_at) / RFU GSTM3 (11746129_a_at) / Fold change /veh GSTM3 (11746129_a_at) / RFU IL23R (11737362_x_at) / Fold change /veh IL23R (11737362_x_at) / RFU TMEM51 (11727254_a_at) / Fold change /veh TMEM51 (11727254_a_at) / RFU PIWIL2 (11732686_x_at) / Fold change /veh PIWIL2 (11732686_x_at) / RFU ORM1 (11744905_x_at) / Fold change /veh ORM1 (11744905_x_at) / RFU CCDC152 (11743942_at) / Fold change /veh CCDC152 (11743942_at) / RFU ECM1 (11717891_a_at) / Fold change /veh ECM1 (11717891_a_at) / RFU IL23R (11748794_a_at) / Fold change /veh IL23R (11748794_a_at) / RFU TNFAIP8L3 (11732012_x_at) / Fold change /veh TNFAIP8L3 (11732012_x_at) / RFU MBOAT4 (11741988_at) / Fold change /veh MBOAT4 (11741988_at) / RFU 11764193_at / Fold change /veh 11764193_at / RFU TMEM53 (11763286_at) / Fold change /veh TMEM53 (11763286_at) / RFU MAGEB2 (11727129_at) / Fold change /veh MAGEB2 (11727129_at) / RFU TMEM200A (11744735_a_at) / Fold change /veh TMEM200A (11744735_a_at) / RFU CCDC152 (11751479_a_at) / Fold change /veh CCDC152 (11751479_a_at) / RFU FAM211A (11726209_a_at) / Fold change /veh FAM211A (11726209_a_at) / RFU RGS16 (11746705_a_at) / Fold change /veh RGS16 (11746705_a_at) / RFU VCAN (11755009_s_at) / Fold change /veh VCAN (11755009_s_at) / RFU RHOB (11743442_s_at) / Fold change /veh RHOB (11743442_s_at) / RFU RGS16 (11720943_a_at) / Fold change /veh RGS16 (11720943_a_at) / RFU RGS16 (11720944_at) / Fold change /veh RGS16 (11720944_at) / RFU, VPS4B / Fold change vs veh, VPS4B / RFU, CREB1 / Fold change vs veh, CREB1 / RFU, DNAJC13 / Fold change vs veh, DNAJC13 / RFU, GNAQ / Fold change vs veh, GNAQ / RFU, CDK5R1 / Fold change vs veh, CDK5R1 / RFU, ZRANB3 / Fold change vs veh, ZRANB3 / RFU, CUL4A / Fold change vs veh, CUL4A / RFU, CCNY / Fold change vs veh, CCNY / RFU, UFL1 / Fold change vs veh, UFL1 / RFU, COG3 / Fold change vs veh, COG3 / RFU, DIAPH2 / Fold change vs veh, DIAPH2 / RFU, SKA2 / Fold change vs veh, SKA2 / RFU, AFF3 / Fold change vs veh, AFF3 / RFU, LMF1 / Fold change vs veh, LMF1 / RFU, IPO11 / Fold change vs veh, IPO11 / RFU, DFFB / Fold change vs veh, DFFB / RFU, FOXP1 / Fold change vs veh, FOXP1 / RFU, CARD8 / Fold change vs veh, CARD8 / RFU, STRN3 / Fold change vs veh, STRN3 / RFU, ADK / Fold change vs veh, ADK / RFU, RASSF2 / Fold change vs veh, RASSF2 / RFU, WIPF1 / Fold change vs veh, WIPF1 / RFU, LARP1B / Fold change vs veh, LARP1B / RFU, RASA1 / Fold change vs veh, RASA1 / RFU, RB1 / Fold change vs veh, RB1 / RFU, PPFIA1 / Fold change vs veh, PPFIA1 / RFU, MAT2A / Fold change vs veh, MAT2A / RFU, CCT5 / Fold change vs veh, CCT5 / RFU, WDR92 / Fold change vs veh, WDR92 / RFU, CUX1 / Fold change vs veh, CUX1 / RFU, TTC7A / Fold change vs veh, TTC7A / RFU, TMEM135 / Fold change vs veh, TMEM135 / RFU, DEPTOR / Fold change vs veh, DEPTOR / RFU, CPM / Fold change vs veh, CPM / RFU, DNAJB6 / Fold change vs veh, DNAJB6 / RFU, CACNA2D3 / Fold change vs veh, CACNA2D3 / RFU, DTX4 / Fold change vs veh, DTX4 / RFU, TFCP2 / Fold change vs veh, TFCP2 / RFU, GMCL1 /// GMCL1P1 / Fold change vs veh, GMCL1 /// GMCL1P1 / RFU, AEBP2 / Fold change vs veh, AEBP2 / RFU, SNHG1 /// SNORD22 /// SNORD25 /// SNORD26 /// SNORD27 /// SNORD28 /// SNORD29 /// SNORD31 / Fold change vs veh, SNHG1 /// SNORD22 /// SNORD25 /// SNORD26 /// SNORD27 /// SNORD28 /// SNORD29 /// SNORD31 / Fold change (Aza/veh), C12orf56 (ProbeSet 11735607_a_at) / Fold change (ACY-1035/veh), C12orf56 (ProbeSet 11735607_a_at) / Fold change (Aza/veh), FGFR1OP (ProbeSet 11751329_s_at) / Fold change (ACY-1035/veh), FGFR1OP (ProbeSet 11751329_s_at) / Fold change (Aza/veh), VPS36 (ProbeSet 11739960_a_at) / Fold change (ACY-1035/veh), VPS36 (ProbeSet 11739960_a_at) / RFU SYPL1 (11715823_x_at) / Fold change /veh SYPL1 (11715823_x_at) / RFU IGFBP7 (11715501_s_at) / Fold change /veh IGFBP7 (11715501_s_at) / RFU REEP3 (11722064_at) / Fold change /veh REEP3 (11722064_at) / RFU IGLL1 (11728026_x_at) / Fold change /veh IGLL1 (11728026_x_at): dose or concentration left out as unconfirmed
Conditions: MV-4-11 cells, 48 hours

For `Nc1ccc(-c2cccs2)cc1NC(=O)c1ccc2c(c1)cc(C1CC1)n2CCN1CCOCC1` [ACY-1035], which “RFU LINC00158 (11744669_a_at)” value is on record?
The value was 7.93 RFU.
